Results reported in PubChem BioAssay (NCI).
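Grown in 96-well plates, cells were treated for 48 hours with each compound at five concentrations. Insufficient inhibition: endpoint recorded as highest concentration tested. The concentration for 50% growth inhibition is given as GI50. At the TGI there is no net growth.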

Experiments:
Assay in all cases: growth of human tumour cells (NCI), 48 h
UO-31 renal = system: UO-31 renal
SK-OV-3 ovarian = system: SK-OV-3 ovarian
SN12C renal = system: SN12C renal
SK-MEL-2 melanoma = system: SK-MEL-2 melanoma
CAKI-1 renal = system: CAKI-1 renal
OVCAR-3 ovarian = system: OVCAR-3 ovarian
OVCAR-4 ovarian = system: OVCAR-4 ovarian
SF-268 CNS = system: SF-268 CNS
T-47D breast = system: T-47D breast
NCI/ADR-RES ovarian = system: NCI/ADR-RES ovarian

Row | Compound | TGI (UO-31 renal) [µM] | TGI (SK-OV-3 ovarian) [µM] | TGI (SN12C renal) [µM] | TGI (SK-MEL-2 melanoma) [µM] | TGI (CAKI-1 renal) [µM] | TGI (OVCAR-3 ovarian) [µM] | TGI (OVCAR-4 ovarian) [µM] | TGI (SF-268 CNS) [µM] | TGI (T-47D breast) [µM] | TGI (NCI/ADR-RES ovarian) [µM] | GI50 (UO-31 renal) [µM] | GI50 (SK-OV-3 ovarian) [µM] | GI50 (SN12C renal) [µM] | GI50 (SK-MEL-2 melanoma) [µM] | GI50 (T-47D breast) [µM] | GI50 (OVCAR-3 ovarian) [µM] | GI50 (OVCAR-4 ovarian) [µM] | GI50 (NCI/ADR-RES ovarian) [µM] | GI50 (SF-268 CNS) [µM] | GI50 (CAKI-1 renal) [µM]
1 | N#CC1(N2CCCC2)CCC2(CC1)OCCO2 | > 100 | > 100 | > 100 | > 100 | > 100 | > 100 | > 100 | > 100 | – | – | – | – | – | – | – | – | – | – | – | –
2 | CC(=O)OC1=C2CC[C@@H]3C(CC[C@@]4(C)C3CC[C@@H]4OC(C)=O)[C@@]2(C)CC(C#N)C1=O (some centres not stated) | > 100 | 48.1 | > 100 | 59.4 | – | 53.3 | 59.4 | > 100 | – | – | – | – | – | – | – | – | – | – | – | –
3 | Brc1ccc(C=NC23CC4CC(CC(C4)C2)C3)cc1 | > 100 | > 100 | > 100 | > 100 | > 100 | > 100 | > 100 | > 100 | – | – | – | – | – | – | – | – | – | – | – | –
4 | CO/C=C(\Br)c1ccc2c(c1)OCO2 | > 100 | > 100 | > 100 | > 100 | > 100 | > 100 | > 100 | > 100 | – | – | – | – | – | – | – | – | – | – | – | –
5 | OCCN(CCO)c1nc(N2CCCCC2)c2nc(N(CCO)CCO)nc(N3CCCCC3)c2n1 | > 100 | – | > 100 | > 100 | > 100 | 32.6 | > 100 | – | > 100 | > 100 | – | – | – | – | – | – | – | – | – | –
6 | O=C1c2ccccc2C(=O)c2c1oc1c2c(=O)[nH]c2ccc(Cl)cc21 | 0.605 | 1.78 | 0.463 | 5.18 | – | 0.557 | 0.443 | 3.99 | 0.981 | 1.77 | 0.195 | 0.348 | 0.198 | 1.75 | 0.256 | 0.239 | 0.165 | 0.354 | 0.456 | –
7 | COc1ccc2c(c1)C(=O)c1c-2c(N2CCN(C(=O)CCNCCNCCN)CC2)nc2ccccc12 | 30.4 | 30.6 | 38.6 | 37 | 47.8 | 61.2 | 38.3 | 20.3 | 15.6 | – | 10.5 | 14.6 | 12.2 | 12.4 | 3.43 | 16.8 | 20.4 | – | 4.97 | 18.8
8 | C[N+](C)(C)C1CC([N+](C)(C)C)C2c3ccccc3C21 (configuration not stated) | > 100 | > 100 | > 100 | – | > 100 | > 100 | > 100 | > 100 | – | – | – | – | – | – | – | – | – | – | – | –
9 | Cc1nc2ccccc2c(/C=C/c2ccccc2)c1C(=O)/C=C/c1ccc(C(F)(F)F)cc1 | 2.26 | – | 4.16 | 3.95 | 2.44 | – | 3.2 | – | 3.88 | 7.19 | 1.07 | – | 1.73 | 1.87 | 1.18 | – | 1.65 | 2.19 | – | 1.14
10 | CCOC(=O)CNC(=O)OCc1ccccc1 | > 100 | > 100 | > 100 | > 100 | > 100 | > 100 | – | > 100 | – | – | – | – | – | – | – | – | – | – | – | –
11 | [Co].[O-]c1cccnc1C=Nc1ccccc1.[OH3+] | > 100 | > 100 | > 100 | > 100 | – | > 100 | > 100 | > 100 | – | – | 56.2 | > 100 | > 100 | > 100 | – | > 100 | > 100 | – | 99.3 | –
12 | CCCCc1n(Cc2ccc3ccccc3n2)cc[n+]1Cc1ccc2ccccc2n1 | 24.5 | 7.23 | 11.1 | 5.58 | – | 10.7 | 13.5 | 14.3 | 6.01 | > 100 | 11.7 | 2 | 1.41 | 1.43 | 0.375 | 0.698 | 0.381 | > 100 | 2.18 | –
13 | O=S1(=O)c2cc(S(=O)(=O)n3ccnc3)ccc2NC2=NCCCN21 | > 100 | 46.9 | > 100 | – | > 100 | 47.8 | > 100 | > 100 | – | – | – | – | – | – | – | – | – | – | – | –
14 | Cc1ccc(/C=N/NS(=O)(=O)c2ccccc2)cc1C | > 100 | > 100 | > 100 | > 100 | > 100 | > 100 | > 100 | > 100 | – | – | – | – | – | – | – | – | – | – | – | –
15 | Cc1[nH]c2ccccc2c1C1=NO/C(=N\O)C(c2c(C)[nH]c3ccccc23)C1 (configuration not stated) | > 80.5 | > 100 | > 100 | > 100 | > 100 | 70.7 | > 100 | > 100 | – | – | – | – | – | – | – | – | – | – | – | –
16 | CN(C)CCN(C)C(=O)c1cccc2cccc(C(=O)O)c12 | > 100 | > 100 | > 100 | 38.7 | – | > 100 | > 100 | > 100 | – | – | – | – | – | – | – | – | – | – | – | –
17 | COc1ccc(C[C@]23CCC(=O)N2CCc2cc(OC)c(O)cc23)cc1O | > 100 | – | > 100 | – | > 100 | > 100 | > 100 | > 100 | – | – | – | – | – | – | – | – | – | – | – | –
18 | Cc1ccc2[nH]c(C(=O)NN3C(=O)C(C)SC34CCC(C)CC4)c(-c3ccccc3)c2c1 (configuration not stated) | 29.4 | > 100 | 28 | 36.7 | 38 | 27.3 | 34.7 | 35.5 | 85.7 | – | 14 | 33.4 | 13 | 17.8 | 19.4 | 11.8 | 14.8 | – | 14.9 | 15.6
19 | C/C(=C\C(C[C@](C)(O)C(O)CCC#C[Si](C)(C)C)S(=O)(=O)c1ccccc1)CC/C=C/CO[Si](C)(C)C(C)(C)C (some centres not stated) | 36.4 | 40.3 | 19 | 44.1 | 33 | 29.6 | 27.9 | – | – | – | – | – | – | – | – | – | – | – | – | –
20 | CC[C@]12C=CCN3CC[C@@]4(c5ccc(OC)cc5N(C)[C@H]4[C@@](O)(C(=O)OC)[C@@H]1OC(=O)CCC(=O)O[C@H]1CC[C@H]4[C@@H]5CC[C@H]6CC(=O)CC[C@]6(C)[C@H]5CC[C@]14C)[C@@H]32 | – | 9.55 | 36.2 | 6.18 | – | > 100 | > 100 | > 100 | 29.7 | > 100 | – | 2.89 | 2.88 | 2.49 | 2.1 | 3.05 | 2.58 | 2.91 | 4.81 | –
